# Test results from patent publication EP0262209B1, “SYNERGISTIC PLANT GROWTH REGULATOR COMPOSITIONS” (RHONE POULENC NEDERLAND B.V., priority 1986, dated 1987).
# Key:
# snapbean plants [1] = test: Defoliation of snapbean plants, foliar spray (Example VI, Table C); type: in vivo, Phaseolus vulgaris var. Cranberry; conditions: Phaseolus vulgaris, foliar, 96 h, read-out: Percent Defoliation
# Description: (§1) Solutions of the test compounds and compositions identified in Table C below were prepared by dissolving the compounds in acetone/water (50:50 volume/volume) containing 0.1 percent volume/volume of Triton X-100 surfactant commercially available from Rhom and Haas Company, Philadelphia, Pennsylvania. As detailed below, these solutions of the test compounds and compositions were applied to snapbean plants at a concentration of 0.25 pounds of each active ingredient per acre (0.28 kg/ha) or 0.50 pounds of each active ingredient per acre (0.56 kg/ha). The compositions were applied to the snapbean plants as a mixture. Ethephon is commercially available from Union Carbide Agricultural Products Company, Inc., Research Triangle Park, North Carolina.
# (§2) Into 13.5 centimeter diameter plastic pots containing a potting soil mix, i.e., one-third sandy loam soil, one-third peat moss and one-third perlite by volume, were sown three snapbean seeds (Phaseolus vulgaris var. Cranberry). Five to seven days after planting, the plants were thinned to one plant per pot. Ten to fourteen days after planting at the time of full expansion of the primary leaves, each concentration of the test compounds and compositions identified in […] (each pot sprayed with a volume equivalent to 180 gallons per acre) - i.e. 1683 l/ha was applied to three snapbean plants as a foliar spray by use of an aspirated spray apparatus set at 10 psig air pressure (517 mmHg). As a control, a water-acetone solution containing no test compound or composition was also sprayed on three snapbean plants. When dry, all or the plants were placed in a greenhouse at a temperature of 80°F ± 5°F (27°C ± 3°C) and humidity of 50 percent ± 5 percent. At 96 hours after treatment, percent defoliation of the snapbean plants was determined by visual observation. The values obtained For the control and each test compound and composition were averaged to obtain the results in Table C.
# snapbean plants [2] = test: Defoliation of snapbean plants at various rates, 72 hours (Example VII, Table D); type: in vivo, Phaseolus vulgaris var. Cranberry; conditions: 72 hours after treatment
# Description: as §1, §2
# In a manner similar to the procedure described in Example VI, the defoliation effect on snapbean plants was determined for representative synergistic compositions at various rates of application except that percent defoliation of the snapbean plants was determined at 72 hours after treatment. TABLE D
# snapbean plants [3] = test: Combination/sequential applications, defoliation of snapbean plants (Example VIII, Table E); type: in vivo, Phaseolus vulgaris var. Cranberry; conditions: Rate 0.5 Pounds per Acre, applied alone
# Description: as §1
# (§3) Into 13.5 centimeter diameter plastic pots containing a potting soil mix, i.e., one-third sandy loam soil, one-third peat moss and one-third perlite by volume, were sown three snapbean seeds (Phaseolus vulgaris var. Cranberry). Five to seven days after planting, the plants were thinned to one plant per pot. […] At 96 hours after treatment, percent defoliation of the snapbean plants was determined by visual observation. […]
# In a manner similar to the procedure described in Example VI , the defoliation effect on snapbean plants was determined for representative synergistic compositions using both combination (tank mix) and sequential application methods. […]
# cotton plants = test: Defoliation and boll opening of cotton under field conditions (Example IX, Table F); type: in vivo; conditions: Rate 2.0 Pounds per Acre
# Description: (§4) Solutions of the test compounds and compositions identified in Table F were prepared by dissolving the compounds in acetone/water (50:50 volume/volume) containing 0.1 percent volume/volume of Surfel® spray adjuvant commercially available from Union Carbide Corporation, Danbury, Connecticut. As detailed below, these solutions of test compounds and compositions were applied to cotton plants at a concentration of 0.5 pounds of each active ingredient per acre (0,6 kg/ha) or 2.0 pounds of active ingredient per acre (2,2 kg/ha). The compositions were applied to cotton as mixtures.
# (§5) The above solutions were applied to cotton plants growing under field conditions at a spray volume equivalent to 100 gallons per acre 935 l/ha) by use of a carbon dioxide backpack sprayer set at about 30 psig air pressure (2 bar). The application timing coincided with a cotton maturity phase equivalent to about 40 percent open bolls. As a control, a water-acetone solution containing no test compound or composition was also sprayed on the cotton plants. At four days after treatment, percent defoliation of the cotton plants was determined by visual observation. At 14 days after treatment, percent boll opening was determined by visual observation of the number of open bolls/total number of bolls. The percent defoliation and percent boll opening values obtained for the control and each of the test compounds and compositions are reported in Table F as the average of three replications. TABLE F
# rank growth cotton = test: Defoliation of cotton (rank growth) (Example X, Table G); type: in vivo; conditions: Rate 2.0 Pounds per Acre
# Description: as §4, §5
# In a manner similar to the procedure described in Example IX , the defoliation effect on rank growth cotton was determined for representative synergistic compositions at various rates of application. […] TABLE G
# cotton [4] = test: Sequential applications, defoliation of cotton (Example XI, Table H); type: in vivo; conditions: Rate 0.25 Pounds per Acre, alone
# Description: In a manner similar to the procedure described in Example VI , the defoliation effect on snapbean plants was determined for representative synergistic compositions using both combination (tank mix) and sequential application methods. In the sequential application method, the second compound was applied 78 hours after the first compound. TABLE E
# In a manner similar to the procedure described in Example VIII , the defoliation effect on cotton was determined for representative synergistic compositions using sequential application. Ethephon applications were made 7 days after application of the particular malonic acid derivative compound. TABLE H
# cotton [5] = test: Defoliation of cotton at various rates (Example XII, Table I); type: in vivo; conditions: Rate 0.5 Pounds per Acre, alone
# Description: as §4, §5
# In a manner similar to the procedure described in Example IX , the defoliation effect on cotton was determined for representative synergistic compositions at various rates of application.
# cotton [6] = test: Defoliation of cotton at various rates (Example XIII, Table J); type: in vivo; conditions: Rate 0.5 Pounds per Acre, alone
# Description: as §4, §5
# In a manner similar to the procedure described in Example IX , the defoliation effect on cotton was determined for representative synergistic compositions at various rates of application. TABLE J
# cotton plant = test: Regrowth of cotton following defoliation, DEF treated plant as standard (Example XIV, Table K); type: in vivo; conditions: for Percent Stimulation: regrowth relative to DEF standard (43 percent), 30 days after treatment
# Description: as §4, §5
# In a manner similar to the procedure described in Example IX , the effect of cotton regrowth after defoliation was determined for representative synergistic compositions at various rates of application. The percent regrowth inhibition and stimulation in Table R below were determined by visual observation based on the percent of a cotton plant having regrowth using a DEF treated cotton plant as the standard. DEF is commercially available from Mobay Chemical Corporation, Kansas City, Missouri. The average regrowth of a cotton plant treated with DEF was 43 percent. As used in Table R, percent regrowth inhibition resulted from a cotton plant having a regrowth percentage less than 43 percent (DEF standard), and percent regrowth stimulation resulted from a cotton plant having a regrowth percentage greater than 43 percent. The percent regrowth inhibition and stimulation were determined 30 days after treatment.
# mature tobacco plants = test: Leaf ripening (chlorosis) of tobacco (Example XV, Table L); type: in vivo; conditions: Rate 1.0 Pounds per Acre, alone; upper three leaves; 7 days after treatment; control 10
# Description: as §1, with “Ethephon is commercially available from Union Carbide Agricultural Products Company, Inc., Research Triangle Park, North Carolina.” left out
# as §3, with “Cranberry).” for “Cranberry). Five to seven days after planting, the plants were thinned to one plant per pot.”
# In a manner similar to the procedure described in Example VI except that mature tobacco plants were used in place of snapbean plants, the leaf ripening effect of tobacco was determined for representative synergistic compositions at various rates of application. […] Percent tobacco leaf ripening (chlorosis) was determined by visual observation of the upper three leaves of the tobacco plant at 7 days after treatment. […]
# snapbean plants [7] = test: Defoliation of snapbean plants with various ethylene releasing agents (Example XVI, Table M); type: in vivo, Phaseolus vulgaris var. Cranberry
# Description: as §1, §2
# In a manner similar to the procedure described in Example VI , the defoliation effect on snapbean plants was determined for representative synergistic compositions at various rates of application using various ethylene releasing agents identified in Table M below. The ethylene releasing agents used in […] are known materials which can be prepared by conventional methods.
# [8] = Gossypium hirsutum, 720 h, read-out: Percent Inhibition
structure (smiles),measurement,setting,value
"O=P(O)(O)CCCl [Ethephon, 2-chloroethylphosphonic acid, reference compound]",pest or weed control at 280.212 g/ha,snapbean plants [1],0%
same,pest or weed control at 560.425 g/ha,snapbean plants [1],21%
same,Percent Defoliation,snapbean plants [2]; Rate 0.25 Pounds per Acre,0%
same,Percent Defoliation,snapbean plants [2]; Rate 0.50 Pounds per Acre,0%
same,Percent Defoliation,snapbean plants [3],0%
same,Percent Boil Opening,"cotton plants; 14 days after treatment, control 41",64%
same,Percent Defoliation,"cotton plants; field conditions, four days after treatment",5%
same,Percent Defoliation,rank growth cotton,12%
same,Percent Defoliation,cotton [4],3%
same,Percent Defoliation,cotton [5],13%
same,Percent Defoliation,cotton [6],5%
same,inhibition at 560.425 g/ha,cotton plant; [8],0%
same,inhibition at 1120.85 g/ha,cotton plant; [8],0%
same,inhibition at 2241.7 g/ha,cotton plant; [8],0%
same,Percent Stimulation,cotton plant; Rate 0.5 Pounds per Acre,16%
same,Percent Stimulation,cotton plant; Rate 1.0 Pounds per Acre,70%
same,Percent Stimulation,cotton plant; Rate 2.0 Pounds per Acre,62%
same,Percent Ripening (Chlorosis),mature tobacco plants,10%
same,Percent Defoliation,snapbean plants [7]; Rate 0.125 Pounds per Acre,0%
same,Percent Defoliation,snapbean plants [7]; Rate 0.25 Pounds per Acre,0%
same,Percent Defoliation,snapbean plants [7]; Rate 0.50 Pounds per Acre,0%
